Here are results for three compounds from patent publication EP0937727A1, “Soluble crystalline cefuroxime axetil” (priority 1998, dated 1999).

The nature of data set [1]: Dissolution (solubility) test of the active ingredient from standardised tablets according to USP 23, p. 316. It counts as physicochemical. As to conditions: test gemäß USP 23, nach 45 Minuten. The source says:
Im Anschluß beschreibt USP 23, Seite 316 einen Test für die Bestimmung der Bioverfügbarkeit dieses, aus beiden Diastereomeren etwa im Verhältnis von 1:1 bestehenden amorphen Produktes. Hierzu wird die Löslichkeit des Wirkstoffes aus einer standardisierten Tablettenformulierung in […] bestimmt. Zuläßlich sind solche Produkte, bei denen in 15 Minuten mindestens 60% des angegebenen Gehaltes an Wirkstoff und innerhalb von 45 Minuten mindestens 75% des angegebenen Wirkstoffes aufgelöst sind.
Das Produkt gemäß EP-A1 0 757 991 läßt sich nach der dortigen Vorschrift erzeugen. Die Löslichkeit des Wirkstoffes (aus der tablettierten Form) wie im folgenden beschrieben und bestimmt nach dem Standardverfahren gem. USP 23, S. 316, erreicht jedoch nach 45 Minuten nur etwas mehr als 40 %.
Dann wurden mit dem so gewonnenen Wirkstoff einerseits, dem erfindungsgemäßen Wirkstoff andererseits Tabletten hergestellt, und zwar nach folgendem Verfahren: 305 mg kristallines Cefuroxim axetil wurden mit 50 mg Ac disol, 50 mg Avicel pH 105, 7,5 mg Aerosil 200, 2,5 mg Magnesiumstearat und 7,5 Explotab trocken vermischt. Das Gemisch wurde trocken verpreßt und granuliert. Das so erhaltene Granulat wurde mit 7,5 mg Explotab und 7,5 mg Natriumlaurylsulfat vermischt und das erhaltene Gemisch wurde dann zu Tabletten gepreßt.
Mit den so erhaltenen Tabletten wurde jeweils der Löslichkeitstest gemäß USP 23 durchgeführt. […]

For data set [2] the following is noted: known crystalline form of the prior art; compared with the prescribed minimum (60% in 15 Minuten, 75% in 45 Minuten); cited from earlier work.

Each structure is given as a SMILES string. “And” between values parts separate entries of the source, which are not always exact repeats. Equal values may be shown once.

For `CO/N=C(\C(=O)N[C@@H]1C(=O)N2C(C(=O)OC(C)OC(C)=O)=C(COC(N)=O)CS[C@H]12)c1ccco1` (single isomer, unassigned) [Beispiel 2], the “Löslichkeit (Grad der Auflösung des Wirkstoffes)” value in data set [1] (listed as kristalline Form von (R,S)-Cefuroxim axetil gemäß USP 23) is > 50% and ~75%.

On to `CO/N=C(\C(=O)N[C@@H]1C(=O)N2C(C(=O)OC(C)OC(C)=O)=C(COC(N)=O)CS[C@H]12)c1ccco1` (stereo partly drawn) [Produkt gemäß EP-A1 0 757 991, (R,S)-Cefuroxim axetil], for which the “Löslichkeit (Grad der Auflösung des Wirkstoffes)” value in data set [1] is given as greater than 40%.

As to `CO/N=C(\C(=O)N[C@@H]1C(=O)N2C(C(=O)OC(C)OC(C)=O)=C(COC(N)=O)CS[C@H]12)c1ccco1` (stereo partly drawn) [kristalline (R,S)-Cefuroxim axetil, (R,S)-Cefuroxim axetil], the “Löslichkeit im Test gemäß USP 23” value in data set [2] is listed as “bei weitem nicht die vorgeschriebene Mindestlöslichkeit”.
